“And” between values parts separate entries of the source, which are not always exact repeats. Identical values can stand only once. “Also recorded” adds a separate entry of the source. Counter-ions that a name gives are not always drawn. Like-named read-outs stand apart in the source and are kept apart here.
Tests used:
in vitro = settings: human
rRVFVΔNSs::Katushka [1] = test: microbe, parasite or virus in culture; assay type: cell-based, Rift Valley fever virus; settings: for IC50: read-out: IC50, dose-response curves of inhibition of RVFV infection (Figure 5A)
rRVFVΔNSs::Katushka [2] = assay type: cell-based, Rift Valley fever virus
A549 cells [3] = tested on: A549 cells
A549 cells [4] = assay type: cell-based, Human
rRVFVΔNSs::Katushka [5] = assay type: cell-based, Rift Valley fever virus; remark: listed apart in the source
[6] = Rift Valley fever virus, A549, 16 h, read-out: EC50 value
[7] = Rift Valley fever virus, A549, 16 h

Row | Compound | CC50 (in vitro) | EC50 (rRVFVΔNSs::Katushka [1]; [6]) | Selectivity index (rRVFVΔNSs::Katushka [1]) | other results
1 | c1ccc(-c2ccc(OCCN3CCOCC3)cc2)cc1 [Compound 4e, 4-(2-(Biphenyl-4-yloxy)ethyl)morpholine] | > 300 µM | > 100 µM | – | –
2 | NCCCNCCOc1ccc(-c2ccccc2)cc1 [Compound 1, N1-(2-(Biphenyl-4-yloxy)ethyl)propane-1,3-diamine·2HCl] | 86 ± 9 µM | 12 ± 1.3 µM | 7.1 | –
3 | NCCCCCCOc1ccc(-c2ccccc2)cc1 [Compound 5a, 6-(Biphenyl-4-yloxy)hexan-1-amine·HCl] | 44.6 ± 0.3 µM | 12.1 ± 2.1 µM | 3.6 | –
4 | c1ccc(Cc2ccccc2OCCCCN2CCNCC2)cc1 [Compound 13e, 1-(4-(2-Benzylphenoxy)butyl)piperazine·2HCl] | 148.4 ± 1.3 µM | 31.2 ± 15.8 µM | 4.7 | –
5 | c1ccc(-c2ccc(OCCN3CCCCC3)cc2)cc1 [Compound 4d, 1-(2-(Biphenyl-4-yloxy)ethyl)piperidine] | > 300 µM | > 100 µM | – | –
6 | c1ccc(-c2ccc(OCCCCN3CCN(c4ccccc4)CC3)cc2)cc1 [Compound 11, 1-(4-(Biphenyl-4-yloxy)butyl)-4-phenylpiperazine] | > 300 µM | – | – | inhibition of RVFV RNA expression (qRT-PCR) (rRVFVΔNSs::Katushka [2]): did not show any inhibition; EC50 value (rRVFVΔNSs::Katushka [1]): the antiviral activity was completely eliminated; also recorded: ND (no inhibition)
7 | CC(C)c1ccc(-c2ccc(OCCCCN3CCNCC3)cc2)cc1 [Compound 13i, 1-(4-(4′-Isopropylbiphenyl-4-yloxy)butyl)piperazine·2HCl] | 23.5 ± 0.1 µM | 4.6 ± 0.3 µM | 5.1 | –
8 | c1ccc(Cc2ccc(OCCCCN3CCNCC3)cc2)cc1 [Compound 13c, 1-(4-(4-Benzylphenoxy)butyl)piperazine·2HCl] | 140.3 ± 0.8 µM | 15.4 ± 4.7 µM | 9.1 | –
9 | c1cc(C23CC4CC(CC(C4)C2)C3)ccc1OCCCCN1CCNCC1 [Compound 13m, 1-(4-(4-Adamantylphenoxy)butyl)piperazine·2HCl] | 13.1 µM | 5.4 ± 1.2 µM | 2.4 | CC50 value (A549 cells [3]): Extreme toxicity
10 | CC(C)c1cccc(-c2ccc(OCCCCN3CCNCC3)cc2)c1 [Compound 13j, 1-(4-(3′-Isopropylbiphenyl-4-yloxy)butyl)piperazine·2HCl] | 25.5 ± 8.9 µM | 4.7 ± 0.7 µM | 5.4 | –
11 | 1-(4-(Benzhydryloxy)butyl)-4-phenylpiperazine [Compound 16] | – | – | – | EC50 value (rRVFVΔNSs::Katushka [1]): reduced the antiviral activity significantly; EC50 (rRVFVΔNSs::Katushka [1]; read-out: EC50 value): > 100 µM; CC50 (A549 cells [3]): > 300 µM
12 | C=C[C@H]1C[N@@]2CC[C@H]1C[C@@H]2[C@@H](O)c1ccnc2ccc(OC)cc12 [quinidine, reference compound] | – | – | – | EC50 (rRVFVΔNSs::Katushka [1]; Rift Valley fever virus, A549, 16 h, read-out: EC50 value, inhibition of RVFV infection (dose-response before membrane potential assay)): 146 µM; IC50 (rRVFVΔNSs::Katushka [1]; [7]): 164 µM; DiBAC4(3) fluorescence intensity (membrane potential) (A549 cells [4]): increased DiBAC4(3) fluorescence intensity (depolarization)
13 | c1ccc(-c2ccc(OCCCN3CCNCC3)cc2)cc1 [Compound 5g, 1-(3-(Biphenyl-4-yloxy)propyl)piperazine] | 203 ± 53.5 µM | > 100 µM | < 2 | –
14 | c1ccc(-c2cccc(OCCCCN3CCNCC3)c2)cc1 [Compound 13a, 1-(4-(Biphenyl-3-yloxy)butyl)piperazine·2HCl] | 145 ± 5.5 µM | 13.8 ± 5.3 µM | 10 and 10.4 | antiviral potency by time of addition (rRVFVΔNSs::Katushka [5]): active at early stages of the viral replication cycle, most likely during or just after virus entry; also recorded: progressively lost its potency when added at late stages of the infection cycle; IC50 (rRVFVΔNSs::Katushka [1]; [7]): 13.8 µM; DiBAC4(3) fluorescence intensity (membrane potential) (A549 cells [4]): increased DiBAC4(3) fluorescence intensity (depolarization)
15 | NCCCOc1ccc(-c2ccccc2)cc1 [Compound 5c, 3-(Biphenyl-4-yloxy)propan-1-amine] | 147 ± 4 µM | 37.8 ± 6.7 µM | 3.8 | –
16 | CC(=O)c1cccc(-c2ccc(OCCCCN3CCNCC3)cc2)c1 [Compound 13g, 1-(4′-(4-(Piperazin-1-yl)butoxy)biphenyl-3-yl)ethanone·2HCl] | > 300 µM | 41.9 ± 27.3 µM | – | –
17 | c1ccc(-c2ccc(OCCN3CCNCC3)cc2)cc1 [Compound 5f, 1-(2-(Biphenyl-4-yloxy)ethyl)piperazine] | 165 ± 22.9 µM | 38.7 ± 11.6 µM | 4.2 | –
18 | c1ccc(-c2ccc(OCCCCN3CCNCC3)cc2)cc1 [Compound 9a, 1-(4-(Biphenyl-4-yloxy)butyl)piperazine] | 74.8 ± 1.2 µM | 12.8 ± 0.2 µM | 5.8 | –
19 | c1ccc(OCCCCN2CCNCC2)cc1 [Compound 13f, 1-(4-Phenoxybutyl)piperazine·2HCl] | > 300 µM | – | – | EC50 value (rRVFVΔNSs::Katushka [1]): completely removed the antiviral activity; also recorded: ND (no inhibition)
20 | CN1CCN(CCCCOc2ccc(-c3ccccc3)cc2)CC1 [Compound 8c, 1-(4-(Biphenyl-4-yloxy)butyl)-4-methylpiperazine] | 136.2 ± 1.2 µM | 61.7 ± 17.6 µM | 2.2 | inhibition of RVFV RNA expression (qRT-PCR) (rRVFVΔNSs::Katushka [2]): unable to inhibit the viral RNA expressions
21 | c1ccc(Cc2cccc(OCCCCN3CCNCC3)c2)cc1 [Compound 13d, 1-(4-(3-Benzylphenoxy)butyl)piperazine·2HCl] | 134.2 ± 0.9 µM | 22.9 ± 5.2 µM | 5.8 | –
22 | c1ccc(-c2ccc(OCCCCCN3CCNCC3)cc2)cc1 [Compound 9b, 1-(5-(Biphenyl-4-yloxy)pentyl)piperazine] | 44.2 ± 16.6 µM | 11.7 ± 1.8 µM | – | –
23 | NCCOc1ccc(-c2ccccc2)cc1 [Compound 5b, 2-(Biphenyl-4-yloxy)ethanamine·HCl] | > 300 µM | 37.3 ± 0.5 µM | 8.1 | –
24 | CN(C)c1cccc(-c2ccc(OCCCCN3CCNCC3)cc2)c1 [Compound 13h, N,N-Dimethyl-4′-(4-(piperazin-1-yl)butoxy)biphenyl-3-amine·3HCl] | 82.5 ± 15.2 µM | 15.5 ± 4.7 µM | 5.3 | CC50 value (A549 cells [3]): high toxicity
25 | c1ccc(-c2ccccc2OCCCCN2CCNCC2)cc1 [Compound 13b, 1-(4-(Biphenyl-2-yloxy)butyl)piperazine·2HCl] | > 300 µM | 63.5 ± 11.1 µM | > 4.7 | –
26 | c1cc(C2CCCCC2)ccc1OCCCCN1CCNCC1 [Compound 13l, 1-(4-(4-Cyclohexylphenoxy)butyl)piperazine·2HCl] | 49.9 ± 10.1 µM | 8.8 ± 0.5 µM | 5.6 | –

Source: PMC8892858 (ACS Omega, 2022)
